Test results taken from patent US20040009273A1, “Method for the long-term preservation of meat and the meat process thereby” (priority 1996, published 2004).

How the values were obtained:
Format in all cases: cell-based
[1] = tested on: bacteria present on the surface of meat samples; test: Bacterial growth under air, CO and N2 atmospheres, non-selective agar plates (Bactoagar); conditions: 4 g meat samples flushed with gas, 24 h at 15±3° C.; plates overnight at 37° C.
Description: (§1) Meat samples weighing 4.00+0.18 grams, were treated by flushing with either air, CO, or N2. After twenty-four hours of storage at room temperature (15±3° C.) each of the treated meat samples was soaked in sterile 0.15M sodium chloride (1 ml per 2 grams of treated meat) for ninety minutes to extract any bacteria present on the surface of individual samples. Aliquots of serial dilutions of the extracts were plated onto non-selective agar plates (Bactoagar, Difco) and on Gram negative selective plates (MacConkey, Difco). All the plates were incubated over night at 37° C. to allow bacterial growth.

[2] = tested on: E coli; test: Growth of inoculated E coli on meat under defined atmospheres; conditions: beef; high CO (95-100%) or low (10%) CO versus untreated
Description: (§2) Studies were carried out comparing growth of inoculated pathogenic bacteria on fresh meat under three atmospheres. Air and two CO containing modified atmospheres: high CO (95-100%) and low (10%) CO. In low CO MA CO was replaced by an inert gas, nitrogen. Note that in most experiments the CO untreated control was the same for both modified atmospheres. Experiments with E coli were carried out on different meat controls.

[3] = tested on: Staphylococcus aures; test: Growth of inoculated Staphylococcus aures on meat under defined atmospheres; conditions: beef; high CO (95-100%) versus untreated
Description: as §2

[4] = tested on: Gram negative bacteria on the surface of meat samples; test: Bacterial growth under air, CO and N2 atmospheres, Gram negative selective plates (MacConkey); conditions: 4 g meat samples flushed with gas, 24 h at 15±3° C.; MacConkey plates overnight at 37° C.
Description: as §1

[5] = tested on: Salmonella Typhimirium; test: Growth of inoculated Salmonella Typhimirium on meat under defined atmospheres; conditions: beef; high CO (95-100%) or low (10%) CO versus untreated
Description: as §2

[6] = tested on: Pseudomonas fluorescence; test: Growth of inoculated Pseudomonas fluorescence on meat under defined atmospheres; conditions: beef and poultry; high CO (95-100%) or low (10%) CO versus untreated
Description: as §2

[7] = tested on: Clostridium prefringens; test: Growth of inoculated Clostridium prefringens on meat under defined atmospheres; conditions: beef and poultry; high CO (95-100%) or low (10%) CO versus untreated
Description: as §2

[8] = tested on: Listeria monocytogenes; test: Growth of inoculated Listeria monocytogenes on meat under defined atmospheres; conditions: beef and poultry; high CO (95-100%) or low (10%) CO versus untreated
Description: as §2

[C-]#[O+] [CO, carbon monoxide]
No of calories, Grown on bactoagar (bacterial colony counts per gram of meat, mean±SD) [1]: (0.29 ± 0.01) × 10^6 per gram of meat
growth of E coli [2]: inhibited
growth of Staphylococcus aures [3]: inhibited
No of calories, Gram negative (bacterial colony counts per gram of meat, mean±SD) [4]: 0.02 ± 0.01) × 10^6 per gram of meat
growth of Salmonella Typhimirium [5]: inhibited
growth of Pseudomonas fluorescence [6]: inhibited
growth of Clostridium prefringens [7]: inhibited
growth of Listeria monocytogenes [8]: inhibited

N#N [N2, nitrogen, reference compound]
No of calories, Grown on bactoagar (bacterial colony counts per gram of meat, mean±SD) [1]: (1.63 ± 0.3) × 10^6 per gram of meat
No of calories, Gram negative (bacterial colony counts per gram of meat, mean±SD) [4]: (0.46 + 0.25) × 10^6 per gram of meat
